Reference: patent US11485733B2, “Azaquinoline derivatives” (BAYER ANIMAL HEALTH GMBH, priority 2017, dated 2022)

Key:
[1] = tested on: Dirofilaria immitis microfilariae; test: Dirofilaria immitis microfilariae (DIROIM L1) motility; conditions: 72 h, read-out: EC50 (reduction of motility)
Cooperia curticei = Cooperia curticei larval mortality; conditions: 120 h, read-out: activity (percentage of larval mortality)
Experimental: In Vitro Assay 6: Cooperia curticei
Solvent: Dimethyl Sulfoxide
Approximately 40 nematode larvae (Cooperia curticei) are transferred into a test tube containing the compound solution.
After 5 days percentage of larval mortality is recorded. 100% efficacy means all larvae are killed; 0% efficacy means no larvae are killed.

D. immitis Slo-1 = D. immitis Slo-1 (Dirofilaria immitis, UniProt I0DFK5); test: D. immitis Slo-1, action at a recombinant CHO cell line (membrane potential, FLIPR); type: cell-based
C. elegans Slo-1a = C. elegans Slo-1a (Caenorhabditis elegans, UniProt Q95V25); conditions: pE50 (negative decadic logarithm of EC50), CHO cells expressing C. elegans Slo-1a; voltage sensitive dye, 70 mM KCl
Experimental: Generation of a Stable C. elegans CHO Cell Line
A CHO cell line was obtained from ATCC, code ATCC CRL-9096. […] The transfection solution included 300 μL OptiMEM (Life Technologies, Nr.: 31985), 2 μL (=6 μg) of plasmid DNA containing the C. elegans Slo 1a gene and 9 μL FugeneHD (Promega, Nr.: E2311), and was added to the cells prior to incubation for 48 hours at 37° C., 5% CO2. The transfection medium was exchanged for the selection medium which contains additional G418 (2 mg/ml, Invitrogen, Nr.: 10131) and the cells were seeded into 384 well plates (300 cells/well). After a few weeks, the remaining surviving cells were tested with a voltage sensitive dye (Membrane Potential Assay Kit, Molecular Devices Nr.: R8034) for K+ channel expression. Positive cell clones were purified by the limited dilution technique. For this the clone with the highest and most robust signal in the voltage sensitive dye assay was further subcloned (incubated) in 384 well plates (0.7 cells/well) in order to obtain clonal purity. This generated a final stable CHO cell line expressing the C. elegans Slo-1a.
Cells were cultured at 37° C. and 5% CO2 in MEMalpha with Gutamax I (Invitrogen, Nr.: 32571), supplemented with 10% (v/v) heat inactivated fetal bovine serum (Invitrogen, Nr.: 10500), G418 (1 mg/ml, Invitrogen, Nr.: 10131). Cells were detached using Accutase (Sigma, Nr.: A6964).
Membrane Potential Measurements
Laboratory compound testing was performed on 384-well microtiter plates (MTPs, Greiner, Nr.: 781092). 8000 cells/well were plated onto 384-well MTPs and cultured for 20 to 24 hours at 37° C. and 5% CO2. After removal of the cell culture medium, the cells were washed once with tyrode (150 mM NaCl, 0.3 mM KCl, 2 mM CaCl2, 1 mM MgCl2, 0.8 mM NaH2PO4, 5 mM Glucose, 28 mM Hepes, pH 7.4) and then loaded with the voltage sensitive dye of the Membrane Potential Assay Kit diluted in tyrode for 1 h at room temperature.
After starting the measurement of fluorescence using a FLIPR Tetra (Molecular Devices, Exc. 510-545 nm, Emm. 565-625 nm), test compounds were added followed by the addition of KCl tyrode (final assay concentration: 70 mM KCl, 2 mM CaCl2, 1 mM MgCl2, 0.8 mM NaH2PO4, 5 mM Glucose, 28 mM Hepes, pH 7.4, including the voltage sensitive dye). The measurement was completed after 7 minutes.
The data were evaluated by using the ActivityBase XLfit software (IDBS) for curve fitting and calculation of the half-maximal effective concentration (EC50) and are reported as negative decadic logarithm (pE50).

Haemonchus contortus = Haemonchus contortus larval mortality; conditions: 120 h, read-out: activity (percentage of larval mortality)
Experimental: In Vitro Assay 7: Haemonchus contortus
Solvent: Dimethyl Sulfoxide
Approximately 40 larvae of the red stomach worm (Haemonchus contortus) are transferred into a test tube containing compound solution.
After 5 days the percentage of larval mortality is recorded. 100% efficacy means all larvae are killed, 0% efficacy means no larvae are killed.

Dirofilaria immitis = Dirofilaria immitis (DIROIM L4) larval motility; conditions: 72 h, read-out: EC50 (reduction of motility)
[2] = tested on: Nippostrongylus brasiliensis; test: Nippostrongylus brasiliensis (NIPOBR) adult worms, acetylcholine esterase readout; conditions: read-out: activity (reduction of AChE compared to negative control); for inhibition at 1 µg/mL: at 1 μg/ml (1 ppm); for inhibition at 10 µg/mL: at 10 μg/ml (10 ppm)
Experimental: In Vitro Assay 3: Nippostrongylus brasiliensis (NIPOBR)
Adult Nippostrongylus brasiliensis were washed with saline buffer containing 100 U/ml penicillin, 0.1 mg/ml streptomycin and 2.5 μg/ml amphotericin B. Test compounds were dissolved in DMSO and worms were incubated in medium in a final concentration of 10 μg/ml (10 ppm) respectively 1 μg/ml (1 ppm). An aliquot of the medium was used to determine the acetylcholine esterase activity in comparison to a negative control. The principle of measuring acetylcholine esterase as readout for anthelmintic activity was described in Rapson et al (1986) and Rapson et al (1987).

Chain of D. immitis Slo-1 (I0DFK5 1-1119): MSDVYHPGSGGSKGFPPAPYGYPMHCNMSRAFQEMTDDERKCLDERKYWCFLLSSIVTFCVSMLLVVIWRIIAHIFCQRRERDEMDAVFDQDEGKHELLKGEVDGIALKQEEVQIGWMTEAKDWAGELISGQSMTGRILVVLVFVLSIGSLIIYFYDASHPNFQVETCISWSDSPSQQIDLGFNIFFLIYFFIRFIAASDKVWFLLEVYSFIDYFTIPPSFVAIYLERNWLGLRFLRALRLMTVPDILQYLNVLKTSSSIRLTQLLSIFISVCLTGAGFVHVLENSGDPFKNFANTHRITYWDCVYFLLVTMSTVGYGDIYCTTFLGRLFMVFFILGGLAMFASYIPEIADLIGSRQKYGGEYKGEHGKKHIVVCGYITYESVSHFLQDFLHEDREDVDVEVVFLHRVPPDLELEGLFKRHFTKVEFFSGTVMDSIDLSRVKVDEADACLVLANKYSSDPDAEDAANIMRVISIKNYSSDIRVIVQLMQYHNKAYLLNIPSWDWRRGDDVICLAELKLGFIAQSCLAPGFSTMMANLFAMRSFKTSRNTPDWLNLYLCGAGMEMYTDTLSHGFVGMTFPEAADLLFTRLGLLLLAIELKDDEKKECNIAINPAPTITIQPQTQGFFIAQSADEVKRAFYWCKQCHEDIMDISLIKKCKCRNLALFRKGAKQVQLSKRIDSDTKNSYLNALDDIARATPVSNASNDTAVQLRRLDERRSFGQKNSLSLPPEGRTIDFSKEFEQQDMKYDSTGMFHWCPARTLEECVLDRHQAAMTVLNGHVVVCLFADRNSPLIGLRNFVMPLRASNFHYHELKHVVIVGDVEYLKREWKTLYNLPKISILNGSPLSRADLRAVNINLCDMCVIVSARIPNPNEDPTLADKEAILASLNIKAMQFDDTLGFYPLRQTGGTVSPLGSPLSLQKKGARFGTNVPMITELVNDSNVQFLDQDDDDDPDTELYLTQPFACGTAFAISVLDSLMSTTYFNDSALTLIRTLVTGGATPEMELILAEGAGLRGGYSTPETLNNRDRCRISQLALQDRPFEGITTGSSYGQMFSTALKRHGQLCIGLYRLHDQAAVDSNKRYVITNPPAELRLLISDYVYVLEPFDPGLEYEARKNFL
Chain of C. elegans Slo-1a (Q95V25 whole entry): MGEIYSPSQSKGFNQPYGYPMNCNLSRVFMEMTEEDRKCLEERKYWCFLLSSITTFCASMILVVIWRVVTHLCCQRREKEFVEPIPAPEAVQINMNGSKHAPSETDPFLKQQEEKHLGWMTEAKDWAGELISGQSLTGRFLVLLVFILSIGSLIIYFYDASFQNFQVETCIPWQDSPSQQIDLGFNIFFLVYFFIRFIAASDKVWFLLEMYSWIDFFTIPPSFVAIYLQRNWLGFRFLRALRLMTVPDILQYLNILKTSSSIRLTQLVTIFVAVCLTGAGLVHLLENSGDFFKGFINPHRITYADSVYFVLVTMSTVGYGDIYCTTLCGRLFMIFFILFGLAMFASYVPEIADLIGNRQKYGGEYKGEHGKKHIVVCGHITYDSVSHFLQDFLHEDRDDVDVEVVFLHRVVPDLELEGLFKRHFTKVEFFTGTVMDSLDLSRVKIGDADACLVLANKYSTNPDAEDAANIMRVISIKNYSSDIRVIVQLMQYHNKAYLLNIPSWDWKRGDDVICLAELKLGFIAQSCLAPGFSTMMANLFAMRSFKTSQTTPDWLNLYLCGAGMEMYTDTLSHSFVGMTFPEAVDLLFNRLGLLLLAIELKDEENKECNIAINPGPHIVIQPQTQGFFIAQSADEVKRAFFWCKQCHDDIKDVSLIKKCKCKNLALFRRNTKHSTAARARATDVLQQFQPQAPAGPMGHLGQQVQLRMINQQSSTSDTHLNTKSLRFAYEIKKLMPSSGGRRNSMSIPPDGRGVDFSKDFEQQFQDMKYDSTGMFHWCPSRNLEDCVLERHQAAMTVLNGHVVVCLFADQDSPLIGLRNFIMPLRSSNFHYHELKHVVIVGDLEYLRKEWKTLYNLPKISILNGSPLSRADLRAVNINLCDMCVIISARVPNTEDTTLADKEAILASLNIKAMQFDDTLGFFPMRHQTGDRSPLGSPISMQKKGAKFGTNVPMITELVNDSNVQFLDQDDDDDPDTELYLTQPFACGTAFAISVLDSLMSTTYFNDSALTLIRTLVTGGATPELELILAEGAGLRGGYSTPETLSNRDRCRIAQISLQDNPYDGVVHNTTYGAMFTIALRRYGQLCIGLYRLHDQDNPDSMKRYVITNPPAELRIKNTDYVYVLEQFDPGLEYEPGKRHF

Compound | EC50 [1] [mg/L] | mortality at 4 ppm (Cooperia curticei) [%] | mortality at 20 ppm (Cooperia curticei) [%] | EC50 (D. immitis Slo-1) [µM] | EC50 (C. elegans Slo-1a) [µM] | mortality at 20 ppm (Haemonchus contortus) [%] | EC50 (Dirofilaria immitis) [mg/L] | inhibition at 1 µg/mL [2] [%] | inhibition at 10 µg/mL [2] [%]
CN(C)c1c(C(=O)N[C@H]2CCOc3ccccc32)cnc2c(-c3cccc(Cl)c3Cl)nccc12 [Example T1-2, 8-(2,3-Dichlorophenyl)-N-[(4S)-3,4-dihydro-2H-chromen-4-yl]-4-(dimethylamino)-1,7-naphthyridine-3-carboxamide] | < 0.1 | 100 | 100 | 0.0316 to 0.316 | 0.00316 to 0.0316 | 90 | < 0.1 | > 80 | > 80
O=C(N[C@H]1CCOc2ccccc21)c1cnc2c(-c3cc(Cl)cc(Cl)c3)nccc2c1N1CCOCC1 [Example T1-3, 8-(3,5-Dichlorophenyl)-N-[(4S)-3,4-dihydro-2H-chromen-4-yl]-4-(morpholin-4-yl)-1,7-naphthyridine-3-carboxamide] | < 0.1 | 100 | 100 | 0.0316 to 0.316 | 0.00316 to 0.0316 | 100 | < 0.1 | > 80 | > 80
O=C(N[C@H]1CCOc2ccccc21)c1cnc2c(-c3cccc(Cl)c3Cl)ncc(F)c2c1N1CCOCC1 [Example T1-7, 8-(2,3-dichlorophenyl)-N-[(4S)-3,4-dihydro-2H-1-benzopyran-4-yl]-5-fluoro-4-(morpholin-4-yl)-1,7-naphthyridine-3-carboxamide] | < 0.1 |  |  | 0.00316 to 0.0316 | < 0.00316 |  | < 0.1 | > 80 | > 80
COc1cnc(-c2cc(F)cc(F)c2F)c2ncc(C(=O)N[C@H]3CCOc4ccccc43)c(N3CCOCC3)c12 [Example T1-9, N-[(4S)-3,4-dihydro-2H-1-benzopyran-4-yl]-5-methoxy-4-(morpholin-4-yl)-8-(2,3,5-trifluorophenyl)-1,7-naphthyridine-3-carboxamide] |  |  |  | 0.0316 to 0.316 | 0.00316 to 0.0316 |  | < 0.1 | > 80 | > 80
COc1cnc(-c2cccc(Cl)c2Cl)c2ncc(C(=O)N[C@H]3CCOc4ccccc43)c(N(C)C)c12 [Example T1-11, 8-(2,3-dichlorophenyl)-N-[(4S)-3,4-dihydro-2H-1-benzopyran-4-yl]-4-(dimethylamino)-5-methoxy-1,7-naphthyridine-3-carboxamide] | < 0.1 |  |  | 0.0316 to 0.316 | 0.00316 to 0.0316 |  | < 0.1 | > 80 | > 80
COc1cnc(-c2cccc(Cl)c2Cl)c2ncc(C(=O)N[C@H]3CCOc4ccccc43)c(N3CCOCC3)c12 [Example T1-14, 8-(2,3-dichlorophenyl)-N-[(4S)-3,4-dihydro-2H-1-benzopyran-4-yl]-5-methoxy-4-(morpholin-4-yl)-1,7-naphthyridine-3-carboxamide] | < 0.1 |  |  | 0.0316 to 0.316 | 0.00316 to 0.0316 |  | < 0.1 | > 80 | > 80
O=C(N[C@H]1CCOc2ccccc21)c1cnc2c(-c3cc(Cl)cc(Cl)c3)cncc2c1N1CCOCC1 [Example T2-4, 8-(3,5-Dichlorophenyl)-N-[(4S)-3,4-dihydro-2H-chromen-4-yl]-4-(morpholin-4-yl)-1,6-naphthyridine-3-carboxamide] | < 0.1 |  |  | 0.0316 to 0.316 | 0.00316 to 0.0316 |  | < 0.1 | > 80 | 
COc1ncc(-c2cccc(Cl)c2Cl)c2ncc(C(=O)N[C@H]3CCOc4ccccc43)c(N3CCOCC3)c12 [Example T2-11, 8-(2,3-dichlorophenyl)-N-[(4S)-3,4-dihydro-2H-1-benzopyran-4-yl]-5-methoxy-4-(morpholin-4-yl)-1,6-naphthyridine-3-carboxamide] | < 0.1 |  |  | 0.0316 to 0.316 | < 0.00316 |  | < 0.1 | > 80 | > 80
O=C(N[C@H]1CCOc2ccccc21)c1cnc2c(-c3cc(Cl)cc(Cl)c3)ccnc2c1N1CCOCC1 [Example T3-2, 8-(3,5-Dichlorophenyl)-N-[(4S)-3,4-dihydro-2H-chromen-4-yl]-4-(morpholin-4-yl)-1,5-naphthyridine-3-carboxamide] | < 0.1 | 90 | 90 |  | 0.00316 to 0.0316 | 90 | < 0.1 |  | 
CN(C)c1c(C(=O)N[C@H]2CCOc3ccccc32)cnc2c(-c3cc(Cl)cc(Cl)c3)ncnc12 [Example T4-1, 4-(3,5-Dichlorophenyl)-N-[(4S)-3,4-dihydro-2H-chromen-4-yl]-8-(dimethylamino)-pyrido[3,2-d]pyrimidine-7-carboxamide] | < 0.1 |  | 80 | 0.0316 to 0.316 | 0.00316 to 0.0316 |  | < 0.1 | > 80 | > 80
O=C(N[C@H]1CCOc2ccccc21)c1cnc2c(-c3cc(Cl)cc(Cl)c3)ncnc2c1N1CCOCC1 [Example T4-2, 4-(3,5-Dichlorophenyl)-N-[(4S)-3,4-dihydro-2H-chromen-4-yl]-8-(morpholin-4-yl)pyrido[3,2-d]pyrimidine-7-carboxamide] | < 0.1 |  |  | 0.0316 to 0.316 | 0.00316 to 0.0316 |  | < 0.1 | > 80 | > 80
CN(C)c1c(C(=O)N[C@H]2CCOc3ccccc32)nnc2c(-c3cc(Cl)cc(Cl)c3)cccc12 [Example T5-1, 8-(3,5-Dichlorophenyl)-N-[(4S)-3,4-dihydro-2H-chromen-4-yl]-4-(dimethylamino)cinnoline-3-carboxamide] | < 0.1 |  |  | 0.0316 to 0.316 | < 0.00316 |  | < 0.1 | > 80 | 
CN(C)c1c(C(=O)N[C@H]2CCOc3ccccc32)nnc2c(-c3cccc(Cl)c3)cccc12 [Example T5-2, 8-(3-Chlorophenyl)-N-[(4S)-3,4-dihydro-2H-chromen-4-yl]-4-(dimethylamino)cinnoline-3-carboxamide] | < 0.1 |  | 80 | 0.0316 to 0.316 | 0.00316 to 0.0316 | 80 |  |  | 
CN(C)c1c(C(=O)N[C@H]2CCOc3ccccc32)nnc2c(-c3cccc(Cl)c3Cl)cccc12 [Example T5-3, 8-(2,3-Dichlorophenyl)-N-[(4S)-3,4-dihydro-2H-chromen-4-yl]-4-(dimethylamino)cinnoline-3-carboxamide] | < 0.1 |  | 80 | 0.00316 to 0.0316 | < 0.00316 |  | < 0.1 | > 80 | 
COc1c(C(=O)N[C@H]2CCOc3ccccc32)nnc2c(-c3cccc(Cl)c3)cccc12 [Example T5-6, 8-(3-Chlorophenyl)-N-[(4S)-3,4-dihydro-2H-chromen-4-yl]-4-methoxycinnoline-3-carboxamide] | < 0.1 |  | 80 | 0.0316 to 0.316 | 0.00316 to 0.0316 |  |  |  | 
COc1c(C(=O)N[C@H]2CCOc3ccccc32)nnc2c(-c3ccc(F)c(F)c3)cccc12 [Example T5-8, 8-(3,4-Difluorophenyl)-N-[(4S)-3,4-dihydro-2H-chromen-4-yl]-4-methoxycinnoline-3-carboxamide] | < 0.1 |  |  | 0.0316 to 0.316 | 0.00316 to 0.0316 |  |  |  | 
CN(C)c1c(C(=O)N[C@H]2CCOc3ccccc32)cnc2c(-c3cccc(Cl)c3Cl)cnnc12 [Example T6-1, 4-(2,3-Dichlorophenyl)-N-[(4S)-3,4-dihydro-2H-chromen-4-yl]-8-(dimethylamino)pyrido[3,2-c]pyridazine-7-carboxamide] | < 0.1 |  | 90 |  | 0.00316 to 0.0316 | 100 | < 0.1 | > 80 | 
O=C(N[C@H]1CCOc2ccccc21)c1cnc2c(-c3cccc(Cl)c3Cl)cnnc2c1N1CCOCC1 [Example T6-2, 4-(2,3-Dichlorophenyl)-N-[(4S)-3,4-dihydro-2H-chromen-4-yl]-8-(morpholin-4-yl)pyrido[3,2-c]pyridazine-7-carboxamide] | < 0.1 |  | 90 |  | 0.0316 to 0.316 |  |  | > 80 | 
CN(C)c1c(C(=O)N[C@H]2CCOc3ccccc32)cnc2c(-c3cc(Cl)cc(Cl)c3)cnnc12 [Example T6-3, 4-(3,5-Dichlorophenyl)-N-[(4S)-3,4-dihydro-2H-chromen-4-yl]-8-(dimethylamino)pyrido[3,2-c]pyridazine-7-carboxamide] | < 0.1 |  |  | 0.0316 to 0.316 | 0.00316 to 0.0316 | 90 | < 0.1 | > 80 | 
O=C(N[C@H]1CCOc2ccccc21)c1cnc2c(-c3cc(Cl)cc(Cl)c3)cnnc2c1N1CCOCC1 [Example T6-4, 4-(3,5-Dichlorophenyl)-N-[(4S)-3,4-dihydro-2H-chromen-4-yl]-8-(morpholin-4-yl)pyrido[3,2-c]pyridazine-7-carboxamide] |  |  | 90 | 0.0316 to 0.316 | 0.0316 to 0.316 | 80 |  |  | 
